Test results taken from patent US8148392B2, “2-indolyl imidazo [4,5-d] phenanthroline derivatives and their use in the treatment of cancer” (Lorus Therapeutics Inc., priority 2005, dated 2012).
“Also recorded” adds a separate entry of the source.

Key:
Cyclin D1 = Cyclin D1 mRNA in HT-29 tumour xenografts, RT-PCR; type: in vivo, CD-1 female nude mice; settings: HT-29 xenograft, versus vehicle
Protocol: The ability of compound 3 to modulate expression of Cyclin D1 was determined using the HT-29 colon tumour xenograft model as described in Example 26. The expression of Cyclin D1 mRNA was analyzed by real-time polymerase chain reaction as described in Example 30. […] The results of this experiment combined with the results described for the effect of compound 3 in vivo on KLF4 and P21 expression as described in Examples 30 and 31 are shown in FIG. 20.
Correlation between zinc-sensitive transcription factor MTF-1 and a cell cycle regulator Cyclin D1 expression in HT-29 colon cancer xenograft tissues is shown in FIG. 30. Based on the presence of putative MTF-1-binding DNA sequences in Cyclin D1 gene promoter region (shown in FIG. 30A), expression levels of MTF-1 and Cyclin D1 in xenograft tissues were examined by RT-PCR, using tissue RNA extract.
To examine the effect of compound 3-mediated changes in KLF4 and Cyclin D1 expressions in vivo, the expressions of respective genes in xenograft tissues of vehicle control (Lutrol) and compound 3-treated HT-29 colon cancer cell-transplanted mice were analyzed by RT-PCR (FIG. 46). Briefly, KLF4 and Cyclin D1 gene expression in HT-29 xenograft tissues after 14 days treatment with compound 3 was measured as follows. The mice subcutaneously transplanted with HT-29 cells were treated with vehicle control (administerd i.p.) or 100 mg/kg compound 3 (administered i.p.) for 14 days (n=6 in each group). Total RNA was extracted and gene expression level was determined by RT-PCR. KLF4 and Cyclin D1 gene expressions were normalized with β-actin gene expression in the same sample. […]
The tumor regression efficacy of compound 3 was assessed in compound 3-treated HT-29-transplanted athymic mice (FIG. 54A), and correlated with gene expressions of MTF-1, KLF4 and Cyclin D1 in HT-29 xenograft tissues (FIG. 54B). […] The tumor size was measured during the course of treatment using calipers (FIG. 54A). […] The tumor tissues were excised, frozen immediately and stored at −80° C. until RNA extraction and gene expression was analyzed by RT-PCR (FIG. 54B). […]

Cyclin D1 protein = Cyclin D1 protein in HT-29 cells, Western blotting; type: cell-based, human; settings: HT-29, 1 μM
Protocol: Gene and protein expression of Cyclin D1 after treatment with compound 3 was determined by RT-PCR and Western blotting as shown in FIGS. 43A and 43B, respectively, as follows. HT-29 cells were treated with 1 μM compound 3 for indicated time. Total RNA was extracted and gene expression level was determined by RT-PCR. Cyclin D1 protein expression in HT-29 cell lysate was determined by SDS-PAGE followed by Western blotting.
To identify the cell cycle regulatory pathway involved in compound 3-mediated cell cycle arrest as shown in Example 23 and 41, particularly associated with G1/S phase, expression of the key cell cycle regulator of G1/S phase progression, Cyclin D1, was examined.

[1] = test system: copper transporter, Ctrl also known as SLC31A1; experiment: Copper transporter Ctr1 (SLC31A1) gene expression in HT-29 cells, RT-PCR; type: cell-based, human
Protocol: The effect of compound 3 and compound 7 treatment on the expressions of a zinc-storage protein meallothionein 1A (MT1A) (FIG. 29A), a copper transporter, Ctrl also known as SLC31A1 (FIG. 29B) and an iron transporter; transferrin receptor 1 (TfR1) (FIG. 29C) were measured and compared with a known zinc chelator TPEN, a copper chelator tetramine and an iron chelator DFO, respectively. Despite in vitro chelation of Cu^+2, increase in copper-sensitive gene after compound 3 treatment was transient.

HT-29 cells = experiment: Cell cycle analysis by flow cytometry, HT-29; type: cell-based, human; settings: HT-29, 24 hours
Protocol: To test the ability of compounds of Formula I to block cell cycle progression, compound 3 was incubated with human colon carcinoma HT-29 or human leukemia CCRF-CEM cells to determine alterations in populations of cells at different stages of the cell cycle using flow cytometric analysis. HT-29 cells were maintained as described in Example 13. CCRF-CEM cells used in this example and subsequent examples were maintained as suspension cells in a growth medium; RPMI-1640 medium (Sigma, St. Louis, Mo.), supplemented with 2 mM L-glutamine (Gibco, Grand Island, N.Y.), 10% fetal bovine serum (FBS) (Multicell, WISENT Inc. St-Bruno, QC), antibiotic-antimycotic (Multicell), at 37° C. in a 5% CO2-humidified incubator.
The assay was carried out as follows. For HT-29 cells, 1×10^6 cells in 10 mL volume of the growth medium were seeded in 100 mm dishes. For CCRF-CEM cells, 3×10^6 cells in 10 mL volume of the growth medium were seeded in 25 cm^2 flask. […] The fluorescence of stained cells was analyzed using FACScan flow cytometer and the Cell Quest program (BD Biosciences, San Jose, Calif.). Data were evaluated using Modfit software (Verity software House, Topsham, Me.). Values were determined by gate analysis of flow cytometric plots. […]
Cell cycle analysis was assessed by flow cytometry in HT-29 cells treated with compound 3 as shown in FIG. 27A and compound 7 as shown in FIG. 27B.

With `Cc1[nH]c2ccccc2c1-c1nc2c3cccnc3c3ncccc3c2[nH]1` [Compound 3] the “Cyclin D1 expression in tumour xenografts” value (“Cyclin D1 expression” for short) (Cyclin D1) was “consistently reduced the expression of Cyclin D1”, the “Cyclin D1 expression” value (Cyclin D1; listed as compound 3) was “decreased Cyclin D1 expression; also recorded: decrease in MTF-1 and Cyclin D1 gene expressions” and the “Cyclin D1 protein expression” value (Cyclin D1 protein) was “decrease in both gene (FIG. 43A) and protein (FIG. 43B) levels of Cyclin D1; also recorded: Decreased protein expression of Cyclin D1”. For the same molecule, the copper-sensitive gene expression [1] was “transient” and the cell cycle progression (HT-29 cells) was “induced a block in cell cycle progression at the G1 phase; also recorded: Cell cycle arrest at G1/S phase was observed”.

For `Cc1[nH]c2ccc(F)cc2c1-c1nc2c3cccnc3c3ncccc3c2[nH]1` [Compound 7], the “Cyclin D1 expression” value (Cyclin D1) was “decreased Cyclin D1 expression” and the cell cycle progression (HT-29 cells) was “Cell cycle arrest at G1/S phase was observed”.
